In paper PMC3516848 (Journal of medicinal chemistry, 2011):

Biological target: T1, recombinant PfA-M1 (Plasmodium falciparum, UniProt O96935)
T1 sequence (O96935 1-1085): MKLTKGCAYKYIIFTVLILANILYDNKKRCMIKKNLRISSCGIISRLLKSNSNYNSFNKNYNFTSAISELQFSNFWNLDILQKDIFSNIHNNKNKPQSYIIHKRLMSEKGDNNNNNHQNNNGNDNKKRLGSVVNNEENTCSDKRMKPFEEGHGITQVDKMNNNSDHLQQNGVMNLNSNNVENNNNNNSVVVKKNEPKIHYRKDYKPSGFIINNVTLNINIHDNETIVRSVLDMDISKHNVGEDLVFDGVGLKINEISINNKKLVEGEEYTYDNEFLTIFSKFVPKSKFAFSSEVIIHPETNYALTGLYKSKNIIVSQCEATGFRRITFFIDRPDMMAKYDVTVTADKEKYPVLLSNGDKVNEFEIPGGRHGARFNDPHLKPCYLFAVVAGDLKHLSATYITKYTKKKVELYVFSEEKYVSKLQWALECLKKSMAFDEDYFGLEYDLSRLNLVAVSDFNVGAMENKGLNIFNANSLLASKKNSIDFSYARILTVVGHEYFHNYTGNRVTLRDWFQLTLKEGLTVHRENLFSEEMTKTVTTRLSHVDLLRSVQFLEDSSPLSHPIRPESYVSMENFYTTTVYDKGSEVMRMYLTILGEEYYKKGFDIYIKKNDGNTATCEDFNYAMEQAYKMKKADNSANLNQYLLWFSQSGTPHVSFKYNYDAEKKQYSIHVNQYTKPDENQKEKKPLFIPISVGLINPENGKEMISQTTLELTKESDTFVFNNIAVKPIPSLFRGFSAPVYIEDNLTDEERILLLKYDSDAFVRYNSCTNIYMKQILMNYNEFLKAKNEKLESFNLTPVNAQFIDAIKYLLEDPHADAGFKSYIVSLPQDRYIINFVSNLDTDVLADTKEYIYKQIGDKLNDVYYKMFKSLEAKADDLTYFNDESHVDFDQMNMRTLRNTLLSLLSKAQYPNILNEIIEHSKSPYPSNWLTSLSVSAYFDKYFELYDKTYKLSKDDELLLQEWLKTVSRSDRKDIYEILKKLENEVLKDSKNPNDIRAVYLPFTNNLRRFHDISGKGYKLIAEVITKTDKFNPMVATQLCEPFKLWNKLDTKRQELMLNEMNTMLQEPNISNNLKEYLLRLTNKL
Assay type: biochemical
Conditions: read-out: Ki (nM) PfA-M1; P1' derivatives; assays at 8 inhibitor concentrations spanning 0.3 30 μM

Row | Ki [nM] | Compound
1 | > 30000 | N[C@H](Cc1ccccc1)[C@H](O)C(=O)N[C@@H](Cc1ccc(-c2ccccc2)cc1)C(=O)O [compound 6, PheBipOH]
2 | > 30000 | N[C@H](Cc1ccccc1)[C@H](O)C(=O)N[C@@H](Cc1ccc2ccccc2c1)C(=O)O [compound 5, PheNaphOH]
